According to patent US10364263B2, “Cyclic phosphates and cyclic phosphoramidates for the treatment of neurologic disorders” (Retrophin, Inc., priority 2015, dated 2019):
Like-named read-outs stand apart in the source and are kept apart here.

What was measured:
Type in all cases: in vitro ADME
[1] = Stability in mouse plasma; conditions: mouse, plasma; for t1/2, Mouse Plasma, Diastereoisomer B: 3 µM
Outline: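 Test compound at 3 μM (0.1% DMSO) was incubated in mouse or human plasma at 37 °C and sampled in duplicate at 0, 10, 20, 30, 40 and 60 min. Reactions were stopped with acetonitrile/formic acid containing internal standard. Remaining parent was measured by UPLC-MS/MS without a calibration curve.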

[2] = Stability in mouse hepatocytes; conditions: t1/2, Mouse Hepatocytes
[3] = Stability in human hepatocytes; conditions: t1/2, Human Hepatocytes
[4] = Permeability in porcine brain endothelial cell blood-brain barrier model; conditions: pig (endothelial cells), co-cultured with rat astrocytes, pH 7.4, PBECs/As blood-brain barrier model, luminal to basal
Outline: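 Co-culture of primary porcine brain endothelial cells on Transwell inserts over primary rat astrocytes, with TEER >500 Ω/cm^2 and FITC-dextran integrity control. Compound added apically in HBSS/20 mM Hepes pH 7.4/0.1% BSA and basal amount measured usually after 60 min, by LC-MS/MS, fluorescence or scintillation. Papp in cm/s, corrected for cell-free filter.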

[5] = Diastereoisomer A, read-out: Papp Diastereoisomer A
[6] = Diastereoisomer B, read-out: Papp Diastereoisomer B

With `COC(=O)CCNC(=O)[C@@H]1OP(=O)(N[C@@H](C)C(=O)OCCc2ccccc2)OCC1(C)C` (stereo partly drawn) [Compound No. 2, Methyl 3-((4R)-5,5-dimethyl-2-oxido-2-(((S)-1-oxo-1-phenethoxypropan-2-yl)amino)-1,3,2-dioxaphosphinane-4-carboxamido)propanoate] the half-life at 3 µM [1] was less than 9.6 min, the “t1/2, Mouse Plasma, Diastereoisomer B” value [1] was less than 9.6 min and the half-life at 5 µM ([2]; Diastereoisomer A) was 23.4 min. The half-life at 5 µM ([2]; Diastereoisomer B) was 26.4 min, the half-life at 5 µM ([3]; Diastereoisomer A) was less than 15 min and the half-life at 5 µM ([3]; Diastereoisomer B) was less than 15 min. The Papp A→B at 60 min [4, 5] was 3.35 ×10⁻⁶ cm/s and the Papp A→B at 60 min [4, 6] was 2.61 ×10⁻⁶ cm/s.
With `COC(=O)CCNC(=O)[C@@H]1OP(=O)(OCCSC(=O)C(C)(C)C)OCC1(C)C` (stereo partly drawn) [Compound No. 2-133, Methyl 3-((4R)-5,5-dimethyl-2-oxido-2-(2-(pivaloylthio)ethoxy)-1,3,2-dioxaphosphinane-4-carboxamido)propanoate] the half-life at 5 µM ([2]; Diastereoisomer A) was less than 15 min, the half-life at 5 µM ([2]; Diastereoisomer B) was less than 15 min and the half-life at 5 µM ([3]; Diastereoisomer A) was less than 15 min. The half-life at 5 µM ([3]; Diastereoisomer B) was less than 15 min, the Papp A→B at 60 min [4, 5] was 21.1 ×10⁻⁶ cm/s and the Papp A→B at 60 min [4, 6] was 21 ×10⁻⁶ cm/s.
In the case of `COC(=O)CCNC(=O)[C@@H]1OP(=O)(N[C@@H](C)C(=O)OCc2ccccc2)OCC1(C)C` (stereo partly drawn) [Compound No. 11, Benzyl ((4R)-4-((3-methoxy-3-oxopropyl)carbamoyl)-5,5-dimethyl-2-oxido-1,3,2-dioxaphosphinan-2-yl)-L-alaninate], the half-life at 5 µM ([2]; Diastereoisomer A) is reported as less than 15 min, the half-life at 5 µM ([2]; Diastereoisomer B) is reported as less than 15 min and the half-life at 5 µM ([3]; Diastereoisomer A) is reported as 27.6 min. It also gave a half-life at 5 µM ([3]; Diastereoisomer B) of less than 15 min, a Papp A→B at 60 min [4, 5] of 3.52 ×10⁻⁶ cm/s and a Papp A→B at 60 min [4, 6] of 3.12 ×10⁻⁶ cm/s.
In the case of `COC(=O)CCNC(=O)[C@@H]1OP(=O)(OCOC(=O)c2ccccc2)OCC1(C)C` (stereo partly drawn) [Compound No. 64, (((4R)-4-((3-methoxy-3-oxopropyl)carbamoyl)-5,5-dimethyl-2-oxido-1,3,2-dioxaphosphinan-2-yl)oxy)methyl benzoate], the half-life at 3 µM [1] is reported as less than 9.6 min, the “t1/2, Mouse Plasma, Diastereoisomer B” value [1] is reported as less than 9.6 min and the half-life at 5 µM ([2]; Diastereoisomer A) is reported as less than 15 min. It also gave a half-life at 5 µM ([2]; Diastereoisomer B) of less than 15 min, a half-life at 5 µM ([3]; Diastereoisomer A) of less than 15 min and a half-life at 5 µM ([3]; Diastereoisomer B) of less than 15 min. The Papp A→B at 60 min [4, 5] was 16 ×10⁻⁶ cm/s and the Papp A→B at 60 min [4, 6] was 20.7 ×10⁻⁶ cm/s.
With `COC(=O)CCNC(=O)[C@@H]1OP(=O)(OCOC(=O)C(C)(C)C)OCC1(C)C` (stereo partly drawn) [Compound No. 65, (((4R)-4-((3-methoxy-3-oxopropyl)carbamoyl)-5,5-dimethyl-2-oxido-1,3,2-dioxaphosphinan-2-yl)oxy)methyl pivalate] the half-life at 3 µM [1] was less than 9.6 min, the “t1/2, Mouse Plasma, Diastereoisomer B” value [1] was less than 9.6 min and the half-life at 5 µM ([2]; Diastereoisomer A) was less than 15 min. For the same compound, the half-life at 5 µM ([2]; Diastereoisomer B) was less than 15 min, the half-life at 5 µM ([3]; Diastereoisomer A) was less than 15 min and the half-life at 5 µM ([3]; Diastereoisomer B) was less than 15 min. For the same compound, the Papp A→B at 60 min [4, 5] was 20.3 ×10⁻⁶ cm/s and the Papp A→B at 60 min [4, 6] was 18.3 ×10⁻⁶ cm/s.
For `COC(=O)CCNC(=O)[C@@H]1OP(=O)(OCOC(=O)c2cncs2)OCC1(C)C` (stereo partly drawn) [Compound No. 70, (((4R)-4-((3-methoxy-3-oxopropyl)carbamoyl)-5,5-dimethyl-2-oxido-1,3,2-dioxaphosphinan-2-yl)oxy)methyl thiazole-5-carboxylate], the half-life at 3 µM [1] was less than 9.6 min, the “t1/2, Mouse Plasma, Diastereoisomer B” value [1] was less than 9.6 min and the Papp A→B at 60 min [4, 5] was 1.58 ×10⁻⁶ cm/s. It also gave a Papp A→B at 60 min [4, 6] of 2.56 ×10⁻⁶ cm/s.
In the case of `COC(=O)CCNC(=O)[C@@H]1OP(=O)(N[C@@H](Cc2ccccc2)C(=O)OCc2ccccc2)OCC1(C)C` (stereo partly drawn) [compound 10, benzyl ((4R)-4-((3-methoxy-3-oxopropyl)carbamoyl)-5,5-dimethyl-2-oxido-1,3,2-dioxaphosphinan-2-yl)-L-phenylalaninate], the half-life at 5 µM ([2]; Diastereoisomer A) is reported as less than 15 min, the half-life at 5 µM ([2]; Diastereoisomer B) is reported as less than 15 min and the half-life at 5 µM ([3]; Diastereoisomer A) is reported as less than 15 min. For the same compound, the half-life at 5 µM ([3]; Diastereoisomer B) was less than 15 min, the Papp A→B at 60 min [4, 5] was 10.1 ×10⁻⁶ cm/s and the Papp A→B at 60 min [4, 6] was 14 ×10⁻⁶ cm/s.
`CC1(C)COP(=O)(O)O[C@H]1C(=O)NCCC(=O)O` [compound 108, 3-((4R)-2-hydroxy-5,5-dimethyl-2-oxido-1,3,2-dioxaphosphinane-4-carboxamido)propanoic acid] showed a half-life at 5 µM ([2]; Diastereoisomer A) of 15 min, a half-life at 5 µM ([3]; Diastereoisomer A) of 15 min and a Papp A→B at 60 min [4, 5] of 0.58 ×10⁻⁶ cm/s.
